Data on three compounds can be found in patent publication US20120070487A1, “ALKYLSACCHARIDE COMPOSITIONS WITH NUTRACEUTICALS” (AEGIS THERAPEUTICS LLC, priority 2010, published 2012).

The structures appear in SMILES notation. Where a SMILES comes first, the peptide text is derived from it. [ ]: non-standard residue; d: D form.

Data set [1] can be described thus: Oral absorption of calcium with alkylsaccharide; blood levels in volunteers. In kind it is in vivo, human. To be noted: oral gelatin capsules, calcium citrate admixed with 3% dodecyl maltoside. Here is the method: Calcium citrate is obtained from General Nutrition Corp. as 1000 mg tablets. The tablets are ground in a mortar and pestle until a fine uniform powder is created. The powder is admixed with 3% dodecyl maltoside, pharmaceutical grade (Inalco Chemical Co., Milan Italy) and filled into gelatin capsules, size #000-25 mm length (Capsuline, Pompano Beach, Fla.) and administered to volunteers. Blood samples are collected and calcium levels are measured by commercial clinical laboratory. The calcium blood levels obtained following oral administration with dodecyl maltoside are seen to be at least 20% higher than those obtained in the absence of dodecyl maltoside.

The nature of data set [2]: Oral absorption of resveratrol with sucrose laurate; blood levels in volunteers. Format: in vivo, human. The conditions noted are these: oral gelatin capsules, admixed with 5% w/w sucrose laurate. Here is the method:
Resveratrol was obtained from RevGenetics, Miami, Fla., as 300 mg gel capsules. Capsules were opened by carefully separating the two halves. The contents were combined and admixed with 5% w/w food grade sucrose laurate alkylsaccharide (Ryoto Sugar Ester M-1216, Mitsubishi-Kagaku Tokyo, Japan). Gelatin capsules were filled with the admixture and administered to volunteers. Blood samples are collected and resveratrol levels are measured by the method of Soleas et al. (Methods Enzymol 335: 130-45 (2001)). The resveratrol blood levels obtained following oral administration with sucrose laurate are at least 20% higher than those obtained in the absence of sucrose laurate.

The conditions of data set [3]: mouse, in vivo.
Method: (§1) Doses of 1 mg each were also administered to mice by the IP, SC and IM routes in solutions containing 0.18% tetradecyl beta-D-maltoside and compared to administration by oral gavage in a solution containing 0.3% (3 mg/mL wt/vol) of tetradecyl-beta-D-maltoside.
(§2) Six week-old male Swiss Webster mice weighing approximately 30 gm were maintained at a constant temperature (24 C) with lights on from 07:00 to 19:00 h, and allowed food and water ad libitum until used for uptake studies. […] For sc, im, and ip delivery, the peptide was dissolved in sterile phosphate buffered saline (PBS, pH 7.2) at a concentration of 1 mg/200 μL as described previously containing 0.18% tetradecyl-beta-D-maltoside. For oral gavage [D-Leu-4]OB3 was dissolved in 0.3% dodecyl-beta-D-maltoside reconstituted in PBS (pH 7.2) at a concentration of 1 mg/200 μL. […]
(§3) The [D-Leu-4]OB3 competitive ELISA assay was carried out as follows. […] Absorbance was read at 405 nm with a Molecular Devices microplate reader (MDS Sciex, Concord, Ontario Canada). […] The relative bioavailability was determined by plotting the serum concentrations of mouse [D-Leu-4]OB3 vs. time following ip, sc, or im delivery using the graphics program SigmaPlot™ 8.0 (SPSS Science, Chicago, Ill., USA). The area under each curve (AUC) was calculated with a function of this program.
A further data set in a line: in vivo. The conditions noted are these: male, Swiss Webster, mouse, po, 1 mg.

Method for in vivo: as §1, §2, §3

As for `O=C([O-])CC(O)(CC(=O)[O-])C(=O)[O-].O=C([O-])CC(O)(CC(=O)[O-])C(=O)[O-].[Ca+2].[Ca+2].[Ca+2]` [Calcium citrate], in data set [1], the “calcium blood levels, increase versus absence of dodecyl maltoside” value is “at least 20%”.

For `Oc1ccc(C=Cc2cc(O)cc(O)c2)cc1` [Resveratrol], in data set [2], the “resveratrol blood levels, increase versus absence of sucrose laurate” value is listed as “at least 20%”.

Consider `CC(C)C[C@@H](NC(=O)[C@H](CO)NC(=O)[C@H](CS)NC(=O)[C@@H](N)CO)C(=O)N1CCC[C@H]1C(=O)N[C@@H](CCC(N)=O)C(=O)N[C@H](C(N)=O)[C@@H](C)O` [[D-Leu-4]OB3, Ser-Cys-Ser-D-Leu-Pro-Gln-Thr] (H-SCS[dL]PQT-NH2; N-terminus assumed), for which, in data set [3], the “Relative Oral Bioavailability Compared to Three Injection Modes (% of AUC achieved by each respective injection)” value is 37.8% of IM AUC. The compound further displayed a F rel in “in vivo” of 47.3%.
